This is an account of results in ChEMBL document CHEMBL1201862, “PubChem BioAssay data set” (2004).

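A five-concentration, 48-hour dose response in 96-well plates underlies each endpoint, interpolated linearly between surrounding concentrations. GI50: concentration for 50% inhibition of growth.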 Active and inactive are the calls of the source. No stated cut-off is given here; in the data, active = GI50 up to about 1.1 µM and inactive = higher.

Test systems include SN12C; LOX IMVI; MDA-MB-435; TK-10; SK-MEL-2; NCI-H522; SF-295; 786-0; NCI-H226; HL-60; EKVX; HCT-15; SW-620; A549; SK-OV-3; MOLT-4; NCI-H23; HOP-92; SNB-19; SR.
Assay in all cases: growth of human tumour cells (NCI), 48 h

With `c1ccc2c(c1)N[C@@H]1c3[nH]c4ccccc4c3CC[C@H]21`, the GI50 with SN12C was 15.2 µM (inactive); in the assay on LOX IMVI, 16 µM (inactive); with MDA-MB-435, 17.3 µM (inactive); in the assay with TK-10, 37 µM (inactive); with SK-MEL-2, 13.9 µM (inactive); with NCI-H522, 11.6 µM (inactive). Further, the GI50 in the assay with SF-295 is 13.4 µM (inactive); with 786-0 it was 15.1 µM (inactive); with NCI-H226, 12.5 µM (inactive); in the assay with HL-60, 16.1 µM (inactive); in the assay with EKVX it was 13.5 µM (inactive); with HCT-15 it was 23 µM. For the same compound, the GI50 is 17.7 µM (inactive) in the assay with SW-620; 18.3 µM (inactive) in the assay on A549; 14.6 µM (inactive) in the assay with SK-OV-3; 13.9 µM (inactive) in the assay with MOLT-4; 15.8 µM (inactive) in the assay with NCI-H23; 14.4 µM (inactive) in the assay on HOP-92. Besides, the GI50 with SNB-19 is 17.6 µM (inactive).

Consider `CCCCCCCCCCCCC/C=C/[C@@H](O)[C@H](COC1OC(CO)C(OC2OC(CO)C(O)C(OC3(C(=O)O)CC(O)C(NC(C)=O)C(C(O)C(O)CO)O3)C2O)C(O)C1O)N=[N+]=[N-]` (stereo partly specified), for which the GI50 is > 100 µM (inactive) in the assay with SN12C; 20.2 µM (inactive) in the assay on LOX IMVI; > 100 µM (inactive) in the assay with MDA-MB-435; > 100 µM (inactive) with TK-10; 17.5 µM (inactive) in the assay on SK-MEL-2; 32.5 µM (inactive) in the assay with NCI-H522. Moreover, the GI50 is 26.4 µM (inactive) in the assay with SF-295; > 100 µM (inactive) in the assay on 786-0; 20.8 µM (inactive) in the assay with NCI-H226; 37.5 µM (inactive) in the assay on HL-60; > 100 µM (inactive) in the assay with EKVX; 72.9 µM in the assay on HCT-15. Besides, the GI50 with SW-620 is 26.7 µM (inactive); in the assay with A549 it was > 100 µM (inactive); in the assay with SK-OV-3 it was 31.2 µM (inactive); in the assay on MOLT-4, 21.7 µM (inactive); with NCI-H23 it was > 100 µM (inactive); in the assay with HOP-92, > 100 µM (inactive). Besides, the GI50 in the assay with SNB-19 was 34 µM (inactive).

Turning to `COc1ccc2c(=O)c(-c3cc4c(cc3OC)OCO4)coc2c1`, the GI50 was > 100 µM (inactive) in the assay on SN12C; > 100 µM (inactive) with LOX IMVI; 56.1 µM (inactive) in the assay with TK-10; > 100 µM (inactive) in the assay with SR; > 100 µM (inactive) with SK-MEL-2; > 100 µM (inactive) in the assay with NCI-H522. Also, the GI50 with SF-295 is 37.7 µM (inactive); with 786-0, 60.1 µM (inactive); with NCI-H226 it was > 100 µM (inactive); in the assay on HL-60 it was > 100 µM (inactive); in the assay on EKVX, > 100 µM (inactive); with HCT-15 it was more than 100 µM. In addition, the GI50 in the assay on SW-620 is > 100 µM (inactive); in the assay on A549 it was > 100 µM (inactive); with SK-OV-3 it was > 100 µM (inactive); with MOLT-4 it was > 100 µM (inactive); in the assay with NCI-H23, > 100 µM (inactive); with HOP-92 it was 32.9 µM (inactive). For the same compound, the GI50 in the assay with SNB-19 is 52 µM (inactive).

`CC1OC(O[C@H]2C3C=CO[C@@H](OC4OC(CO)C(O)C(O)C4O)C3[C@@]3(COC(=O)/C=C/c4ccc(O)cc4)O[C@@H]23)C(O)C(O)C1O` (stereo partly specified): the GI50 in the assay on SN12C, in the assay on LOX IMVI, in the assay on MDA-MB-435, with TK-10, in the assay with SK-MEL-2 and with NCI-H522 was > 100 µM (inactive) in each case. The GI50 in the assay on SF-295 is > 100 µM (inactive); in the assay with 786-0 it was > 100 µM (inactive); in the assay with NCI-H226, > 100 µM (inactive); in the assay on HL-60, > 100 µM (inactive); with EKVX it was > 100 µM (inactive); in the assay on HCT-15 it was more than 100 µM. The GI50 with SW-620, in the assay on A549, in the assay with SK-OV-3, in the assay with MOLT-4, in the assay with NCI-H23 and with HOP-92 was > 100 µM (inactive) in each case. The GI50 in the assay on SNB-19 is > 100 µM (inactive).

Turning to `COc1ccc2c(c1)/C(=C\c1c(Cl)nc3n1CCS3)C(=O)N2`, the GI50 in the assay on SN12C is 10.8 µM (inactive); with LOX IMVI, 9.71 µM (inactive); in the assay with MDA-MB-435, 1.29 µM (inactive); with TK-10, 5 µM (inactive); with NCI-H522, 3.73 µM (inactive); in the assay on SF-295, 3.72 µM (inactive). The GI50 in the assay with 786-0 was 7.83 µM (inactive); in the assay on HL-60, 3.58 µM (inactive); in the assay with EKVX, 18.3 µM (inactive); in the assay on HCT-15, 3.84 µM; in the assay with SW-620, 4.94 µM (inactive); in the assay on A549 it was 5.62 µM (inactive). The GI50 is 13.1 µM (inactive) in the assay on SK-OV-3; 4.01 µM (inactive) with MOLT-4; 11.2 µM (inactive) with NCI-H23; 46.5 µM (inactive) in the assay with HOP-92; 14.6 µM (inactive) in the assay on SNB-19.

`NC(=S)N/N=C1\CCCCC1C(O)(C(F)(F)Cl)C(F)(F)Cl` (stereo unspecified): the GI50 in the assay on SN12C, with LOX IMVI, with MDA-MB-435, in the assay on TK-10, in the assay with SK-MEL-2 and with NCI-H522 was > 10 µM (inactive) throughout. In addition, the GI50 is > 10 µM (inactive) with SF-295; > 10 µM (inactive) with 786-0; > 10 µM (inactive) in the assay on NCI-H226; > 10 µM (inactive) in the assay with HL-60; > 10 µM (inactive) in the assay with EKVX; more than 10 µM with HCT-15. The GI50 in the assay with SW-620, in the assay on A549, in the assay on SK-OV-3, in the assay with MOLT-4, in the assay on NCI-H23 and with HOP-92 was > 10 µM (inactive) throughout. For the same compound, in the assay on SNB-19, the GI50 is > 10 µM (inactive).

As for `C1CCSCCCCSCCCCSCCCCSC1`, the GI50 with SN12C, in the assay with LOX IMVI, in the assay with MDA-MB-435, with TK-10, in the assay with SK-MEL-2 and in the assay with NCI-H522 was > 100 µM (inactive) throughout. For the same compound, the GI50 with SF-295 was > 100 µM (inactive); in the assay on 786-0, > 100 µM (inactive); with NCI-H226, > 100 µM (inactive); in the assay with EKVX it was > 100 µM (inactive); with HCT-15 it was more than 100 µM; with SW-620, > 100 µM (inactive). Further, the GI50 in the assay on A549, in the assay with SK-OV-3, in the assay on NCI-H23, in the assay with HOP-92 and in the assay on SNB-19 was > 100 µM (inactive) throughout.

`CCOC(=O)CO/N=C1/C(=C2/C(=O)Nc3ccccc32)Nc2ccccc21`: the GI50 is 31.3 µM (inactive) in the assay on SN12C; > 100 µM (inactive) with LOX IMVI; > 100 µM (inactive) in the assay with MDA-MB-435; 86.3 µM (inactive) with TK-10; 39.6 µM (inactive) with SK-MEL-2; > 100 µM (inactive) with NCI-H522. Besides, the GI50 with SF-295 was 33.3 µM (inactive); in the assay with 786-0, 7.5 µM (inactive); in the assay with HL-60 it was > 100 µM (inactive); in the assay on EKVX, 13.4 µM (inactive); with HCT-15, 81.7 µM; with SW-620, 34.7 µM (inactive). The GI50 with A549 is 24.5 µM (inactive); in the assay with SK-OV-3, 13.6 µM (inactive); in the assay on MOLT-4 it was 22 µM (inactive); in the assay with NCI-H23, 17 µM (inactive); in the assay on HOP-92, 16.9 µM (inactive); in the assay with SNB-19, 10 µM (inactive).

As to `COc1cc(/C=C2/C[C@H]3[C@@H]4CCC5=CC(=O)CC[C@]5(C)[C@H]4CC[C@]3(C)NC2=O)cc(OC)c1OC`, the GI50 is 22.1 µM (inactive) in the assay on SN12C; 19.5 µM (inactive) in the assay on MDA-MB-435; 16.2 µM (inactive) in the assay with TK-10; 24.8 µM (inactive) in the assay on SK-MEL-2; 14.1 µM (inactive) in the assay with NCI-H522; 20 µM (inactive) with SF-295. Besides, the GI50 is 48.6 µM (inactive) in the assay with 786-0; 28.8 µM (inactive) in the assay with NCI-H226; 13.2 µM (inactive) in the assay on HL-60; 24.5 µM (inactive) in the assay on EKVX; 21.5 µM with HCT-15; 36.7 µM (inactive) with SW-620. The GI50 in the assay with A549 was 20.6 µM (inactive); with SK-OV-3 it was 30.7 µM (inactive); with MOLT-4, 10.2 µM (inactive); with NCI-H23 it was 21.3 µM (inactive); with HOP-92, 11.2 µM (inactive); in the assay with SNB-19 it was 45 µM (inactive).

As to `[N-]=[N+]=Nc1ccc2c(c1)Sc1ccccc1N2CCCCN1CCN(Cc2ccc(C(=O)c3ccc(CSCC(N)C(=O)O)cc3)cc2)CC1` (stereo unspecified), the GI50 was 31.3 µM (inactive) with SN12C; 10.6 µM (inactive) in the assay with LOX IMVI; 1.59 µM (inactive) with MDA-MB-435; 56.2 µM (inactive) in the assay on TK-10; 19.3 µM (inactive) with SK-MEL-2; 12.5 µM (inactive) in the assay on NCI-H522. Also, the GI50 is 18.2 µM (inactive) with SF-295; 12.1 µM (inactive) in the assay on 786-0; 13.2 µM (inactive) with NCI-H226; 6.55 µM (inactive) with HL-60; 52.8 µM (inactive) with EKVX; 14.2 µM in the assay with HCT-15. Also, the GI50 with SW-620 is 1.87 µM (inactive); in the assay on SK-OV-3 it was > 100 µM (inactive); with MOLT-4 it was 15.3 µM (inactive); in the assay on NCI-H23, 31.3 µM (inactive); with HOP-92, 9.84 µM (inactive).

As for `COc1cccc(/C(C=O)=C(\Cl)c2ccc(OC)c(OC)c2)c1`, the GI50 in the assay on SN12C was 14.7 µM (inactive); in the assay on LOX IMVI it was 15 µM (inactive); in the assay on TK-10, 28.1 µM (inactive); in the assay on SR it was 13.5 µM (inactive); in the assay with SK-MEL-2, 19.2 µM (inactive); with NCI-H522, 10.3 µM (inactive). Also, the GI50 is 15.2 µM (inactive) in the assay with SF-295; 16.1 µM (inactive) in the assay on 786-0; 14 µM (inactive) in the assay on NCI-H226; 3.97 µM (inactive) in the assay with HL-60; 17.9 µM (inactive) with EKVX; 12.9 µM in the assay on HCT-15. The GI50 in the assay with SW-620 is 15.9 µM (inactive); with A549 it was 19.5 µM (inactive); in the assay on SK-OV-3, 26.1 µM (inactive); in the assay on MOLT-4, 13.2 µM (inactive); with NCI-H23, 12.2 µM (inactive); in the assay with HOP-92, 20.6 µM (inactive). Moreover, the GI50 in the assay with SNB-19 is 3.94 µM (inactive).
